Drawing on US8163917B2, “Azaindoles useful as inhibitors of Janus kinases” (Vertex Pharmaceuticals Incorporated, priority 2006, dated 2012), this text covers Ki for 31 molecules.

Where only a bound is given, the exact number is not on record here.

One assay addresses JAK-2 enzyme (Homo sapiens, UniProt O60674). Kind of assay: JAK2 Inhibition Assay. The assay is classed as biochemical. Conditions: 12 μM ATP, 15 μM poly(Glu)4Tyr. Here is the method:
(§1) Compounds were screened for their ability to inhibit JAK3 using the assay shown below. Reactions were carried out in a kinase buffer containing 100 mM HEPES (pH 7.4), 1 mM DTT, 10 mM MgCl2, 25 mM NaCl, and 0.01% BSA. Substrate concentrations in the assay were 5 μM ATP (200 uCi/μmole ATP) and 1 μM poly(Glu)4Tyr. Reactions were carried out at 25° C. and 1 nM JAK3.
(§2) To each well of a 96 well polycarbonate plate was added 1.5 μl of a candidate JAK3 inhibitor along with 50 μl of kinase buffer containing […] and 10 μM ATP. This was then mixed and 50 μl of kinase buffer containing 2 nM JAK3 enzyme was added to start the reaction. After 20 minutes at room temperature (25° C.), the reaction was stopped with 50 μl of 20% trichloroacetic acid (TCA) that also contained 0.4 mM ATP. The entire contents of each well were then transferred to a 96 well glass fiber filter plate using a TomTek Cell Harvester. After washing, 60 μl of scintillation fluid was added and ^33P incorporation detected on a Perkin Elmer TopCount.
The assays were as described above in Example 3 except that JAK-2 enzyme was used, the final poly(Glu)4Tyr concentration was 15 μM, and final ATP concentration was 12 μM.

The next assay deals with T1, JAK3 (Homo sapiens, UniProt P52333).
T1 sequence (P52333 1-1124): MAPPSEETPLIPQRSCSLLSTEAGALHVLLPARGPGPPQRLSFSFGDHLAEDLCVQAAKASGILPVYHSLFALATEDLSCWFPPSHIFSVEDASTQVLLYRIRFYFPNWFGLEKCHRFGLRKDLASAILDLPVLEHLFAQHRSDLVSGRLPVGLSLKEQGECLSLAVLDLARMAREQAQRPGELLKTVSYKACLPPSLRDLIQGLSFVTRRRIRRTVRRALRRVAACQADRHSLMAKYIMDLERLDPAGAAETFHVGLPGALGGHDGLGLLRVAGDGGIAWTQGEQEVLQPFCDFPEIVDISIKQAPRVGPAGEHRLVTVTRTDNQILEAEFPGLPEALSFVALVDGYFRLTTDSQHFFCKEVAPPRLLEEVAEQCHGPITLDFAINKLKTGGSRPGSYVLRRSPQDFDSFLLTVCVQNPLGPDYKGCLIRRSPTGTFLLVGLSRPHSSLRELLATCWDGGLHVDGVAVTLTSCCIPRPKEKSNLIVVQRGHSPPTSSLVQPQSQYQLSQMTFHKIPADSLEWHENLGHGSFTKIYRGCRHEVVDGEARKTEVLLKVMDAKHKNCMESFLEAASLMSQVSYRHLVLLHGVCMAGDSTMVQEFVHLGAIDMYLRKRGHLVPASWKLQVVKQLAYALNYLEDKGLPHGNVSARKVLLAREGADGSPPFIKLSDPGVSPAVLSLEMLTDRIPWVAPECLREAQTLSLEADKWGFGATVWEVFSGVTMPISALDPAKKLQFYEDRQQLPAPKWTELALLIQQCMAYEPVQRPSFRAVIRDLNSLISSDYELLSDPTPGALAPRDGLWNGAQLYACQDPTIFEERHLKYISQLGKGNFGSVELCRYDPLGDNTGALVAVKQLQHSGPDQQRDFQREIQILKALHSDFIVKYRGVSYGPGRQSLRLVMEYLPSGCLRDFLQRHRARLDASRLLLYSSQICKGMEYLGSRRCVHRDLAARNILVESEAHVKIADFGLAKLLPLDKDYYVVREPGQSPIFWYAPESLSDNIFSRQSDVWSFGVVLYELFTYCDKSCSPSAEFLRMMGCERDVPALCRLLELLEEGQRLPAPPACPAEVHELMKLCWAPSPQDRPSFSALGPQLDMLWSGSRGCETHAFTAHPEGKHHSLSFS
Nature of the assay: JAK3 Inhibition Assay. The assay is classed as biochemical. The note with it: 5 μM ATP, 1 μM poly(Glu)4Tyr, 1 nM JAK3, 25° C. The method, then:
as §1, §2

Sequence of JAK-2 enzyme (O60674 whole entry): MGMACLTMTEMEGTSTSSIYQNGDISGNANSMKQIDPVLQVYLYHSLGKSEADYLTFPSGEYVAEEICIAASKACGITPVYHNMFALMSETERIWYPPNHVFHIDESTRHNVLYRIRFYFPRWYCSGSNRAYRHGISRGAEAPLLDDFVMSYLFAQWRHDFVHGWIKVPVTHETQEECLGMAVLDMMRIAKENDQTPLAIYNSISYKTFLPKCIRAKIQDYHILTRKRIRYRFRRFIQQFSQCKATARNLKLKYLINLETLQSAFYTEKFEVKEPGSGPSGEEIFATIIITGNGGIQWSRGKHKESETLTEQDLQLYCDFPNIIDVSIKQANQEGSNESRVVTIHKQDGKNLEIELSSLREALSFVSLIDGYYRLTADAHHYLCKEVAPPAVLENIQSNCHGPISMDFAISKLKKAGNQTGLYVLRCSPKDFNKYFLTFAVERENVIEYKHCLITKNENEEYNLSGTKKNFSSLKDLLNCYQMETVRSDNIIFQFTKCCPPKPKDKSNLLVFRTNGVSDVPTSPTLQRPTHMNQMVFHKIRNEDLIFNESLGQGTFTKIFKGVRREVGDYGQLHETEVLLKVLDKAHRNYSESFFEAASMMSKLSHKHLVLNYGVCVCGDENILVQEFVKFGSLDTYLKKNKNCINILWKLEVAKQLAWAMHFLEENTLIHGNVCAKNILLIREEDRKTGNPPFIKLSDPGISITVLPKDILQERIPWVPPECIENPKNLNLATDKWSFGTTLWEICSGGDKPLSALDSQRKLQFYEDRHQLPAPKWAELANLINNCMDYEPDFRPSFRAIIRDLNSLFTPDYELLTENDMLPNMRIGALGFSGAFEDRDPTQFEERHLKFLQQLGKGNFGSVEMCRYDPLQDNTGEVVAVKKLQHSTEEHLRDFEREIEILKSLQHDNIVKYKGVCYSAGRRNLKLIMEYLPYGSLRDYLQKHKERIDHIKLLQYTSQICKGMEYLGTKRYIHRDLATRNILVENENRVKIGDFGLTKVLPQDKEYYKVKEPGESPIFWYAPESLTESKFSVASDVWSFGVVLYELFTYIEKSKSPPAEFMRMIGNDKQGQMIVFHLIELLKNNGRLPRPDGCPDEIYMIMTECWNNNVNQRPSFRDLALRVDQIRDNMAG

The Ki is a measure of affinity in units of concentration, obtained from inhibition or displacement. Higher therefore signals a looser hold on the target. On to `C[C@H]1CCN(c2nc(-c3c[nH]c4ncc(Cl)cc34)ncc2F)[C@@H]1C(=O)NCC(F)(F)F` [Compound 9], for which the inhibition constant Ki on JAK-2 enzyme is ≥ 500 nM.

As to `CC(C)C[C@@H](Nc1nc(-c2cn(C)c3ncc(Cl)cc23)ncc1F)C(=O)NCC(F)(F)F` [Compound 22], the inhibition constant (Ki) at JAK3 was ≥ 100 nM; at JAK-2 enzyme, ≥ 500 nM.

With `COC(=O)c1cc(N2CCC[C@@H]2C(=O)NCC(F)(F)F)nc(-c2c[nH]c3ncc(Cl)cc23)n1` [Compound 35], the Ki on JAK3 was ≥ 100 nM; on JAK-2 enzyme it was ≥ 500 nM.

For the molecule `O=C(NCC(F)(F)F)C1COCCN1c1nc(-c2c[nH]c3ncc(Cl)cc23)ncc1F` (stereo not drawn) [Compound 38], the Ki at JAK-2 enzyme was ≥ 500 nM.

`O=C(O)c1cnc(-c2c[nH]c3ncc(Cl)cc23)nc1N1CCC[C@@H]1C(=O)NCC(F)(F)F` [Compound 56]: the Ki at JAK3 is ≥ 100 nM; at JAK-2 enzyme, ≥ 500 nM.

`CCOC(=O)c1cnc(-c2c[nH]c3ncc(Cl)cc23)nc1N1CCC[C@@H]1C(=O)NCC(F)(F)F` [Compound 57]: the inhibition constant (Ki) on JAK-2 enzyme is ≥ 500 nM.

As for `O=C(NCC(F)(F)F)[C@@H]1CCCCN1c1nc(-c2c[nH]c3ncc(Cl)cc23)ncc1F` [Compound 68], the inhibition constant (Ki) on JAK3 is ≥ 2000 nM; on JAK-2 enzyme, ≥ 5000 nM.

Take `O=C(NC1CC1)[C@H]1CCCN1c1nc(-c2c[nH]c3ncc(Cl)cc23)ncc1F` [Compound 177]: the Ki at JAK3 was ≥ 100 nM.

For the molecule `CCCNC(=O)C(C)(C)Nc1nc(-c2c[nH]c3ncc(Cl)cc23)nc2cc(OC)c(OC)cc12` [Compound 223], the inhibition constant (Ki) on JAK3 is ≥ 100 nM.

For the molecule `O=C(NCC(F)(F)F)[C@@H]1CCCN1c1nc(-c2c[nH]c3ncccc23)ncc1F` [Compound 310], the Ki at JAK3 is ≥ 100 nM; on JAK-2 enzyme, ≥ 500 nM.

Take `CNC(=O)c1cc(N2CCC[C@@H]2C(=O)NCC(F)(F)F)nc(-c2c[nH]c3ncc(Cl)cc23)n1` [Compound 317]: the Ki is ≥ 100 nM at JAK3 and ≥ 500 nM on JAK-2 enzyme.

As to `CCNC(=O)c1cc(N2CCC[C@@H]2C(=O)NCC(F)(F)F)nc(-c2c[nH]c3ncc(Cl)cc23)n1` [Compound 318], the Ki on JAK3 is ≥ 100 nM; at JAK-2 enzyme, ≥ 5000 nM.

For `CCCNC(=O)c1cc(N2CCC[C@@H]2C(=O)NCC(F)(F)F)nc(-c2c[nH]c3ncc(Cl)cc23)n1` [Compound 319], the Ki is ≥ 2000 nM at JAK3 and ≥ 5000 nM at JAK-2 enzyme.

Regarding `O=C(NC1CC1)c1cc(N2CCC[C@@H]2C(=O)NCC(F)(F)F)nc(-c2c[nH]c3ncc(Cl)cc23)n1` [Compound 320], the Ki at JAK3 was ≥ 100 nM; at JAK-2 enzyme, ≥ 500 nM.

Regarding `O=C(NCC(F)(F)F)[C@@H]1CNCCN1c1nc(-c2c[nH]c3ncccc23)ncc1F` [Compound 321], the Ki on JAK3 is ≥ 100 nM; at JAK-2 enzyme, ≥ 500 nM.

As to `CC(C)NC(=O)[C@H]1CCCN1c1nc(-c2c[nH]c3ncc(Cl)cc23)ncc1F` [Compound 322], the Ki at JAK3 is ≥ 100 nM.

For `CC(C)(Nc1nc(-c2c[nH]c3ncc(Cl)cc23)ncc1C#N)C(=O)NCCC(F)(F)F` [Compound 326], the inhibition constant Ki at JAK3 was ≥ 100 nM.

Consider `CCN(C)C(=O)[C@H]1CCCN1c1nc(-c2c[nH]c3ncc(Cl)cc23)ncc1F` [Compound 336], for which the Ki was ≥ 100 nM on JAK3 and ≥ 500 nM at JAK-2 enzyme.

Consider `CCN(C)C(=O)[C@H]1CCCN1c1ccnc(-c2c[nH]c3ncc(Cl)cc23)n1` [Compound 337], for which the Ki on JAK3 was ≥ 100 nM.

As for `CCOC(=O)c1cnc(-c2c[nH]c3ncc(Cl)cc23)nc1N1CCC[C@@H]1C(=O)N(C)CC(F)(F)F` [Compound 338], the Ki on JAK3 was ≥ 100 nM; on JAK-2 enzyme, ≥ 500 nM.

As for `CN(CC(F)(F)F)C(=O)[C@H]1CCCN1c1nc(-c2c[nH]c3ncccc23)ncc1O` [Compound 339], the Ki is ≥ 100 nM on JAK3 and ≥ 500 nM on JAK-2 enzyme.

With `CN(CC(F)(F)F)C(=O)[C@H]1CCCN1c1nc(-c2c[nH]c3ncc(Cl)cc23)ncc1O` [Compound 340], the results for the Ki on JAK3 and at JAK-2 enzyme were ≥ 100 nM and ≥ 500 nM, respectively.

Take `CCC(CC)(Nc1ccnc(-c2c[nH]c3ncccc23)n1)C(=O)NCC(F)(F)F` [Compound 348]: the inhibition constant (Ki) on JAK-2 enzyme is ≥ 500 nM.

With `O=C(NCC(F)(F)F)[C@H]1C[C@H](O)CN1c1nc(-c2c[nH]c3ncccc23)ncc1F` [Compound 351], the results for the Ki on JAK3 and at JAK-2 enzyme were ≥ 100 nM and ≥ 500 nM, respectively.

`CN(c1nc(-c2c[nH]c3ncccc23)ncc1F)C1(C(=O)NCC(F)(F)F)CC1` [Compound 356]: the Ki at JAK3 is ≥ 100 nM; at JAK-2 enzyme it was ≥ 500 nM.

For the molecule `CC(C)[C@@H](Nc1nc(-c2c[nH]c3ncccc23)ncc1F)C(=O)NCC(F)(F)F` [Compound 367], the Ki is ≥ 100 nM at JAK3 and ≥ 500 nM on JAK-2 enzyme.

Turning to `CC(C)CC(=O)N1CCN(c2ccnc(-c3c[nH]c4ncccc34)n2)[C@@H](C(=O)NCC(F)(F)F)C1` [Compound 369], the Ki on JAK3 is ≥ 100 nM.

As to `CC(C)(C)CC(=O)N1CCN(c2ccnc(-c3c[nH]c4ncccc34)n2)[C@@H](C(=O)NCC(F)(F)F)C1` [Compound 370], the Ki at JAK3 is ≥ 100 nM.

Regarding `CCCNC(=O)N1CCN(c2ccnc(-c3c[nH]c4ncccc34)n2)[C@@H](C(=O)NCC(F)(F)F)C1` [Compound 372], the inhibitory constant (Ki) at JAK-2 enzyme was ≥ 500 nM.

As to `COc1cc2nc(-c3c[nH]c4ncccc34)nc(NC(C)(C)C(=O)NCCF)c2cc1OC` [Compound 388], the inhibitory constant (Ki) at JAK3 is ≥ 100 nM.

For the molecule `COc1cc2nc(-c3c[nH]c4ncccc34)nc(NC(C)(C)C(=O)NCC(F)F)c2cc1OC` [Compound 390], the Ki on JAK3 was ≥ 100 nM.
